The values below come from patent publication US20220041623A1, “INDOLE MACROCYCLIC DERIVATIVE, PREPARATION METHOD THEREOF AND APPLICATION THEREOF IN MEDICINE” (JIANGSU HENGRUI MEDICINE CO., LTD., priority 2018, published 2022).

The target of the test is T1, MCL-1 protein (Homo sapiens, UniProt Q07820).
T1 construct: Bim peptide bought from R&D, 3526/1 NA
As to the kind of experiment: MCL-1 protein binding experiment (HTRF, MCL-1/Bim). To be noted: for inhibition at up to 10 µM / Maximum inhibition rate (%): HTRF MCL-1/Bim binding, initial concentration 10 μM; for inhibition at up to 10 µM: read-out: Maximum inhibition rate (%); for Ki: HTRF, 0.1 nM His-MCL-1, 2.5 nM bio-Bim, room temperature. On the procedure:
The following method was used to determine the binding ability of the compound of the present invention to MCL-1 protein. The experimental method is briefly described as follows.
MCL-1 inhibitors can bind to MCL-1 protein to prevent the binding of MCL-1 to Bim protein. The experiment evaluates the binding ability of MCL-1 inhibitor to MCL-1 protein by detecting the binding of MCL-1 to Bim protein through HTRF method, and the activity of the compound was evaluated according to the Ki value.
The mixture was incubated at room temperature for 2 hours, followed by the detection of fluorescence signals at 620 nm and 665 nm by PHERAstar. The data was processed by GraphPad software.
(In general: Time-resolved FRET reads energy transfer from a long-lived donor to a nearby acceptor.)

T1 sequence (Q07820 171-327): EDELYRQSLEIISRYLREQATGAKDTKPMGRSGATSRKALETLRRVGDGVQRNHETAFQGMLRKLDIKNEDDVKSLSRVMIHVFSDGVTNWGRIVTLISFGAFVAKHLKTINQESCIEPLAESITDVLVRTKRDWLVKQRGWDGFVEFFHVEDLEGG

In the case of `Cc1c2c(nn1C)CSCc1cc(n(C)n1)CSc1cc(c3ccccc3c1)OCCCn1c(C(=O)O)cc3c-2c(Cl)ccc31` (single isomer, unassigned) [Example 1-1, (Ra)-17-Chloro-5,13-14-trimethyl-28-oxa-2,9-dithia-5,6,12,13,24-pentaazaheptacyclo[27.7.1.1^4,7.0^11,15.0^16,21.0^20,24.0^30,35]octatriaconta-1(37),4(38),6,11,14,16,18,20,22,29,31,33,35-tridecaene-23-carboxylic acid], the inhibition at up to 10 µM came out at 100% and the affinity, expressed as Ki, was 0.36 nM.

Take `Cc1c2c(nn1C)CSCc1cc(n(C)n1)CSc1cc(c3ccccc3c1)OCCCn1c(C(=O)O)cc3c-2c(Cl)ccc31` (single isomer, unassigned) [Example 1-2, (Sa)-17-Chloro-5,13-14-trimethyl-28-oxa-2,9-dithia-5,6,12,13,24-pentaazaheptacyclo[27.7.1.1^4,7.0^11,15.0^16,21.0^20,24.0^30,35]octatriaconta-1(37),4(38),6,11,14,16,18,20,22,29,31,33,35-tridecaene-23-carboxylic acid]: the “Maximum inhibition rate (%)” value was 100% and the affinity corresponds to a Ki of 56 nM.

Compound `Cc1c(C(=O)O)n2c3ccc(Cl)c(c13)-c1c(nn(C)c1C)CSCc1cc(n(C)n1)CSc1cc(c3ccccc3c1)OCCC2` (single isomer, unassigned) [Example 2-2, (Sa)-17-Chloro-5,13,14,22-tetramethyl-28-oxa-2,9-dithia-5,6,12,13,24-pentaazaheptacyclo[27.7.1.1^4,7.0^11,15.0^16,21.0^20,24.0^30,35]octatriaconta-1(37),4(38),6,11,14,16,18,20,22,29,31,33,35-tridecaene-23-carboxylic acid] had a Ki of 65 nM. The “Maximum inhibition rate (%)” value (10 µM) is 95%.

`Cc1c(C(=O)O)n2c3ccc(Cl)c(c13)-c1c(nn(C)c1C)CN(C)Cc1cc(n(C)n1)CSc1cc(c3ccccc3c1)OCCC2` (single isomer, unassigned) [Example 3-1, (Ra)-17-Chloro-5,9,13,14,22-pentamethyl-28-oxa-2-thia-5,6,9,12,13,24-hexaazaheptacyclo[27.7.1.1^4,7.0^11,15.0^16,21.0^20,24.0^30,35]octatriaconta-1(37),4(38),6,11,14,16,18,20,22,29,31,33,35-tridecaene-23-carboxylic acid]: the inhibition at up to 10 µM was 100% and the affinity corresponds to a Ki of 0.18 nM.

`Cc1c(C(=O)O)n2c3ccc(Cl)c(c13)-c1c(nn(C)c1C)CN(C)Cc1cc(n(C)n1)CSc1cc(c3ccccc3c1)OCCC2` (single isomer, unassigned) [Example 3-2, (Sa)-17-Chloro-5,9,13,14,22-pentamethyl-28-oxa-2-thia-5,6,9,12,13,24-hexaazaheptacyclo[27.7.1.1^4,7.0^11,15.0^16,21.0^20,24.0^30,35]octatriaconta-1(37),4(38),6,11,14,16,18,20,22,29,31,33,35-tridecaene-23-carboxylic acid] displayed a Ki of 14 nM. In addition, the “Maximum inhibition rate (%)” value (10 µM) was determined as 99%.

Consider `Cc1c(C(=O)O)n2c3ccc(Cl)c(c13)-c1c(nn(C)c1C)CSCc1cc(n(C)n1)CSc1cc3c(c(c1)OCCC2)CCCC3` (single isomer, unassigned) [Example 7-2, (Sa)-17-Chloro-5,13,14,22-tetramethyl-28-oxa-2,9-dithia-5,6,12,13,24-pentaazaheptacyclo[27.7.1.1^4,7.0^11,15.0^16,21.0^20,24.0^30,35]octatriaconta-1(37),4(38),6,11,14,16,18,20,22,29,35-undecaene-23-carboxylic acid], for which the Ki was 15 nM. For the setting “10 µM”, the “Maximum inhibition rate (%)” value is on record as 100%.

As a reminder, the inhibition is the relative decrease from the control value, in per cent. Broadly, the Ki is a dissociation constant, usually derived from enzyme kinetics or from competition with a known ligand.
